#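 Protocol summary: plate cells (96-well), add compound at 5 concentrations, incubate 48 h, interpolate endpoints linearly. GI50 is the concentration that inhibits growth by half.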 The source made the active and inactive calls. No stated cut-off is given here; in the data, active = GI50 up to about 1.1 µM and inactive = higher.
# Assays:
# Assay in all cases: inhibition of tumour cell growth, NCI panel, 48 h
# [1] = tested on: DMS-273
# [2] = tested on: UO-31
# [3] = tested on: SNB-19
# [4] = tested on: SF-268
# [5] = tested on: MOLT-4
# [6] = tested on: HOP-92
# [7] = tested on: OVCAR-3
# [8] = tested on: Malme-3M
# [9] = tested on: RXF 393
# [10] = tested on: SK-MEL-28
# [11] = tested on: SNB-75
# [12] = tested on: HT-29
# [13] = tested on: 786-0
# [14] = tested on: OVCAR-5
# [15] = tested on: UACC-257
# [16] = tested on: SNB-78
# [17] = tested on: HOP-18
# [18] = tested on: M19-MEL
# [19] = tested on: SW-620
# [20] = tested on: IGROV-1
# [21] = tested on: SF-295
# [22] = tested on: CCRF-CEM
# [23] = tested on: KM-20L2
# [24] = tested on: SK-MEL-2
# [25] = tested on: RPMI-8226
# [26] = tested on: TK-10
# [27] = tested on: ACHN
# [28] = tested on: HL-60
# [29] = tested on: HOP-62
# [30] = tested on: SK-OV-3
# [31] = tested on: NCI-H460
# [32] = tested on: XF498
# [33] = tested on: COLO 205
# [34] = tested on: A498
# [35] = tested on: NCI-H23
# [36] = tested on: LOX IMVI
# [37] = tested on: OVCAR-8
# [38] = tested on: HCT-116
# [39] = tested on: A549
# [40] = tested on: HCC 2998
# [41] = tested on: U-251
# [42] = tested on: DLD-1
# [43] = tested on: LXFL 529
# [44] = tested on: K562
# [45] = tested on: KM12
# [46] = tested on: DMS-114
# [47] = tested on: EKVX
# [48] = tested on: BT-549
# [49] = tested on: OVCAR-4
# [50] = tested on: MDA-MB-231
# [51] = tested on: UACC-62
# [52] = tested on: SR
# [53] = tested on: PC-3
# [54] = tested on: MCF7
# [55] = tested on: Hs-578T
# [56] = tested on: NCI/ADR-RES
# [57] = tested on: T47D
# [58] = tested on: SF-539
# [59] = tested on: SN12C
# [60] = tested on: NCI-H226
# [61] = tested on: MDA-N
# [62] = tested on: M14
# [63] = tested on: HCT-15
# [64] = tested on: MDA-MB-435
# [65] = tested on: DU-145
# [66] = tested on: CAKI-1
# [67] = tested on: NCI-H522
# [68] = tested on: RXF 631
# [69] = tested on: SK-MEL-5
structure (smiles),measurement,setting,value
Brc1ccc2c(c1)C1C(CO2)C(c2ccccc2)=NN1c1ccccc1 (stereo not given),GI50,[1],> 100 µM (inactive)
same,GI50,[2],> 100 µM (inactive)
same,GI50,[3],> 100 µM (inactive)
same,GI50,[4],> 100 µM (inactive)
same,GI50,[5],> 100 µM (inactive)
same,GI50,[6],57.3 µM (inactive)
same,GI50,[7],> 100 µM (inactive)
same,GI50,[8],> 100 µM (inactive)
same,GI50,[9],> 100 µM (inactive)
same,GI50,[10],> 100 µM (inactive)
same,GI50,[11],> 100 µM (inactive)
same,GI50,[12],54.2 µM (inactive)
same,GI50,[13],> 100 µM (inactive)
same,GI50,[14],> 100 µM (inactive)
same,GI50,[15],> 100 µM (inactive)
same,GI50,[16],> 100 µM (inactive)
same,GI50,[17],60 µM (inactive)
same,GI50,[18],> 100 µM (inactive)
same,GI50,[19],> 100 µM (inactive)
same,GI50,[20],> 100 µM (inactive)
same,GI50,[21],> 100 µM (inactive)
same,GI50,[22],> 100 µM (inactive)
same,GI50,[23],> 100 µM (inactive)
same,GI50,[24],> 100 µM (inactive)
same,GI50,[25],77.6 µM (inactive)
same,GI50,[26],> 100 µM (inactive)
same,GI50,[27],> 100 µM (inactive)
same,GI50,[28],90.8 µM (inactive)
same,GI50,[29],> 100 µM (inactive)
same,GI50,[30],> 100 µM (inactive)
same,GI50,[31],> 100 µM (inactive)
same,GI50,[32],> 100 µM (inactive)
same,GI50,[33],> 100 µM (inactive)
same,GI50,[34],> 100 µM (inactive)
same,GI50,[35],> 100 µM (inactive)
same,GI50,[36],> 100 µM (inactive)
same,GI50,[37],> 100 µM (inactive)
same,GI50,[38],> 100 µM (inactive)
same,GI50,[39],> 100 µM (inactive)
same,GI50,[40],> 100 µM (inactive)
same,GI50,[41],> 100 µM (inactive)
same,GI50,[42],> 100 µM (inactive)
same,GI50,[43],> 100 µM (inactive)
same,GI50,[44],78.9 µM (inactive)
same,GI50,[45],> 100 µM (inactive)
same,GI50,[46],> 100 µM (inactive)
same,GI50,[47],> 100 µM (inactive)
O=C(CC(=O)c1ccccc1NC1=Cc2ccccc2C(=O)C1=O)C(=O)NC1=C(Cl)C(=O)c2ccccc2C1=O,GI50,[1],2.34 µM (inactive)
same,GI50,[48],3.76 µM (inactive)
same,GI50,[49],3.36 µM (inactive)
same,GI50,[2],6.89 µM (inactive)
same,GI50,[3],5.56 µM (inactive)
same,GI50,[4],2.93 µM (inactive)
same,GI50,[5],1.24 µM (inactive)
same,GI50,[50],2.42 µM (inactive)
same,GI50,[6],4.51 µM (inactive)
same,GI50,[7],1.51 µM (inactive)
same,GI50,[8],1.22 µM (inactive)
same,GI50,[9],2.34 µM (inactive)
same,GI50,[10],1.89 µM (inactive)
same,GI50,[51],1.85 µM (inactive)
same,GI50,[52],1.44 µM (inactive)
same,GI50,[11],1.69 µM (inactive)
same,GI50,[12],5.26 µM (inactive)
same,GI50,[13],2.48 µM (inactive)
same,GI50,[53],2.23 µM (inactive)
same,GI50,[14],5.98 µM (inactive)
same,GI50,[54],0.804 µM (active)
same,GI50,[55],1.9 µM (inactive)
same,GI50,[15],2.04 µM (inactive)
same,GI50,[16],2.16 µM (inactive)
same,GI50,[18],0.225 µM (active)
same,GI50,[19],2.43 µM (inactive)
same,GI50,[56],3 µM (inactive)
same,GI50,[57],10.9 µM (inactive)
same,GI50,[58],4.31 µM (inactive)
same,GI50,[20],5.79 µM (inactive)
same,GI50,[59],1.8 µM (inactive)
same,GI50,[21],3.87 µM (inactive)
same,GI50,[22],2.03 µM (inactive)
same,GI50,[23],9.77 µM (inactive)
same,GI50,[24],2.47 µM (inactive)
same,GI50,[25],1.56 µM (inactive)
same,GI50,[60],7.52 µM (inactive)
same,GI50,[26],22.3 µM (inactive)
same,GI50,[61],1.75 µM (inactive)
same,GI50,[27],3.56 µM (inactive)
same,GI50,[62],1.47 µM (inactive)
same,GI50,[28],0.605 µM (active)
same,GI50,[29],4.79 µM (inactive)
same,GI50,[30],23.3 µM (inactive)
same,GI50,[31],3.04 µM (inactive)
same,GI50,[32],2.49 µM (inactive)
same,GI50,[33],14.8 µM (inactive)
same,GI50,[34],14.7 µM (inactive)
same,GI50,[63],1.67 µM
same,GI50,[35],1.57 µM (inactive)
same,GI50,[64],1.85 µM (inactive)
same,GI50,[36],1.13 µM (inactive)
same,GI50,[37],3.12 µM (inactive)
same,GI50,[38],2.31 µM (inactive)
same,GI50,[39],4.55 µM (inactive)
same,GI50,[40],9.84 µM (inactive)
same,GI50,[65],5.71 µM (inactive)
same,GI50,[41],3.04 µM (inactive)
same,GI50,[42],2.38 µM (inactive)
same,GI50,[66],8.28 µM (inactive)
same,GI50,[43],2.46 µM (inactive)
same,GI50,[67],1.91 µM (inactive)
same,GI50,[68],4.37 µM (inactive)
same,GI50,[44],1.29 µM (inactive)
same,GI50,[45],4.28 µM (inactive)
same,GI50,[69],0.752 µM (active)
same,GI50,[46],1.68 µM (inactive)
same,GI50,[47],7.98 µM (inactive)
